Results published in patent US20100261618A1, “Identification of genes implicated in the virulence of streptococcus agalactiae” (priority 2006, published 2010).
Where two headings read alike, the source gives them in different places.

Legend:
GBS 0582 = target: T1, GBS 0582 (Streptococcus agalactiae, UniProt Q8E126); assay: biochemical; parameters: species or system S. agalactiae
T1 sequence (Q8E126 1-311): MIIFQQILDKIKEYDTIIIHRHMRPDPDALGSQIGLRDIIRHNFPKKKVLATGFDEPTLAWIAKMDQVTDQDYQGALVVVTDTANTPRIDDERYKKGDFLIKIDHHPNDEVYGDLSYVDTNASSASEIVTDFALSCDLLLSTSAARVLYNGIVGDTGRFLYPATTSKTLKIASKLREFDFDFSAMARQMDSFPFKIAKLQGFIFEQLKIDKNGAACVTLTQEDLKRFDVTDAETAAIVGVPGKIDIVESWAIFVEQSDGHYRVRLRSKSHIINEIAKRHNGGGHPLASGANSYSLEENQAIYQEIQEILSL

[1] = test system: S. agalactiae NEM316 wild type strain; assay: Sensitivity to colistin (MIC) of the wild type strain
Method: Screening for sensitivity to cationic peptide colistin and cell wall defect of the mutant library. The S. agalactiae mutants were grown TH-Kn in 96-wells microplates over-night. Bacteria were then diluted to 1:1000 and each dilution was dispatched into two microplates. In one microplate 50 μl of TH was added, whereas 50 μl of 512 μg/ml colistin (Sigma) or 2 μg/ml novobiocin (Sigma) was added in the other thus obtaining final concentrations of 256 μg/ml and 1 μg/ml, respectively. Microplates were incubated overnight at 37° C. OD600 of microplates was read on a Multiskan Ex apparatus (Thermo).

GBS 0307 = GBS 0307 (Streptococcus agalactiae, UniProt Q8E1N5, T550A); assay: biochemical
Chain of GBS 0307 (Q8E1N5 whole entry T550A): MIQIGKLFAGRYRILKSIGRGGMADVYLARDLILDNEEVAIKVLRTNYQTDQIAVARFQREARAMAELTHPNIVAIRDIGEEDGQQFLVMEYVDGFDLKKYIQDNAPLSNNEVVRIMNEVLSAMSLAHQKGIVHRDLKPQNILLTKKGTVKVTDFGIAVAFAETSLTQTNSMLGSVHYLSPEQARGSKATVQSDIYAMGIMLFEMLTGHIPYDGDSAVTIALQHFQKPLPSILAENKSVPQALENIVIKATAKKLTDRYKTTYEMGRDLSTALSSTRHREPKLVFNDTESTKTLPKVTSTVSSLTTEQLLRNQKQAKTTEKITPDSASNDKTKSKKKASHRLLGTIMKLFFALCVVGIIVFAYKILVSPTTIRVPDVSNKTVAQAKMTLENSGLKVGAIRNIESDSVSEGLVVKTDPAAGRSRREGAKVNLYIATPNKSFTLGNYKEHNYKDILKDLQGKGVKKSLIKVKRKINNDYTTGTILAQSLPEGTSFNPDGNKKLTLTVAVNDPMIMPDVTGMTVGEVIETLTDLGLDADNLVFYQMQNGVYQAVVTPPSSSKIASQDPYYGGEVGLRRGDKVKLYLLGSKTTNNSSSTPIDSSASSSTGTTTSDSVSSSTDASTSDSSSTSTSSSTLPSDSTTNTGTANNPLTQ

Compound: Nc1ncnc2c1ncn2[C@@H]1O[C@H](COP(=O)(O)O)[C@@H](O)[C@H]1O [AMP, Adenosine monophosphate]
- IC50 (GBS 0582): 235 ± 45 µM

Compound: Nc1ncnc2c1ncn2[C@@H]1O[C@H](COP(=O)(O)OP(=O)(O)O)[C@@H](O)[C@H]1O [ADP]
- IC50 (GBS 0582; read-out: IC50): 405 µM

Compound: colistin
- CMI [1]: ≤ 1024 µg/mL

Compound: CN[C@@H]1C[C@H]2O[C@@](C)([C@@H]1OC)n1c3ccccc3c3c4c(c5c6ccccc6n2c5c31)C(=O)NC4 [Staurosporine]
- IC50 (GBS 0307): 0.023 ± 0.008 µM
